Laboratory results from publication PMC7615676, “Short-course combination treatment for experimental chronic Chagas disease” (Science translational medicine, 2023).
Several values for one entry are separate records, joined by “and”; a condition that tells them apart may be missing. Identical values can stand only once. Like-named read-outs stand apart in the source and are kept apart here.

Tests used:
[1] = target: T1, Human complex III (bc1), mitochondria from THP-1 (Homo sapiens, UniProt P00156); test: human complex III inhibition assay; type: biochemical
T1 construct: Preparation of mitochondria from a human cell line (THP-1); endogenous in cells; host or cells: THP-1 (human) mitochondria
Protocol: Preparation of mitochondria from a human cell line (THP-1) was performed following published procedure ([72]). The protocol for the assay has been described in ([73]).

[2] = bioanalysis of blood samples from in vivo efficacy studies; design: species or system BALB/c mice; details: for AUC0-7h Day 1, unbound concentrations of compound 3 / AUC0-7h Day 5, unbound concentrations of compound 3 / Cmax Day 1, unbound concentrations of compound 3 / Cmax Day 5, unbound concentrations of compound 3: 50mg/kg bid, 5 days; for AUC(0-t) / Cmax: BALB/c, mouse, whole blood, po, 50 mg/kg, compound 3 50mg/kg bid
Protocol: Following the first daily dose on day 1 and last day of treatment, serial blood samples were taken by the tail vein from all treated mice pre-dose, then 30 minutes, 1, 2, 4, and 8 hours post-dose, mixed with two volumes of distilled water and analyzed for test compound. Quantification of compounds was performed by means of LC/MSMS and exposure parameters namely Cmax and AUClast were estimated using Phoenix 64 (Pharsight Certara).

[3] = tested on: isolated rat liver mitochondria; test: calcium loading capacity (CLC) in rat liver mitochondria; type: biochemical; details: minimum effective concentration
Protocol: The CLC of freshly isolated liver mitochondria was determined as previously described ([70]). Briefly, mitochondria were suspended at 0.2 mg/ml in incubation buffer B, supplemented with 100 μM arsenazo III, 2.5 μM rotenone and 1 μg/ml oligomycin in each well of a 96 well microplate (control and treated mitochondria were assayed simultaneously) and absorbance measured every 2 seconds at 650 nm in a FlexStation3 microplate reader (Molecular Devices, Sunnyvale, CA, USA). After approximately 1 minute of reading, Ca^2+ was added (0.5-1 μmol/ mg mitochondrial protein) followed by the addition of 10 mM succinate as the mitochondrial substrate. The CLC was calculated as the difference in optical density (ΔOD) between the point at which mitochondria were energized and the point where mitochondrial permeability transition was triggered (i.e., the lowest OD reading before calcium release via MPT).
The concentration-response relationship was modelled using a robust fit of a cubic polynomial regression ([74], [75]). The fitted curves were then used to calculate the Minimum Effective Concentration (MEC). The MEC was defined as the lowest concentration where the fitted curve exceeded 3 standard deviations (SD) around the DMSO mean response. SD was estimated from the deviations of DMSO and compound treated wells around the fitted means, using a robust estimator based on Gini’s mean difference ([76]).

[4] = tested on: chronic T. cruzi infection (CL Brener) in BALB/c mice; test: bioluminescent mouse model of chronic Chagas disease; type: in vivo, Trypanosoma cruzi; details: 5 days
HepG2 cells = test: Seahorse MST (mitochondrial stress test), oxygen consumption rate; type: cell-based; details: lowest concentration reducing OCR >15% vs DMSO
Protocol: To measure the Oxygen Consumption Rate (OCR) in cells following compound treatment, the Seahorse XFe96 Extracellular Flux Analyser (Agilent) was used ([69]). HepG2 cells were maintained in DMEM medium (Invitrogen #11966-025) supplemented with 10 mM galactose, 1 mM sodium pyruvate, 5 mM HEPES, 2 mM GlutaMAX, 10% fetal bovine serum and 50 μg/ml gentamycin. Cells were maintained in a 37 °C, 5% CO2 humidified atmosphere. The measurement of OCR was performed as previously described ([70], [71]) with minor modifications. Briefly, HepG2 cells were seeded in an XF96-well plate at 14000 cells per 100 μl cell culture medium per well and incubated in a 37 °C, 5% CO2 humidified atmosphere for 24 hours. Following incubation, the culture medium was replaced with 175 μl pre-warmed, serum-free XF base assay medium (Agilent), supplemented with 2 mM L-glutamine, 1 mM sodium pyruvate and 10 mM galactose (pH 7.4) and incubated at 37 °C for one hour. Test compounds (compound 3 and 4) were maintained in DMSO and a four-point dose response (final concentrations 10, 20, 40 and 80 μM), plus 0.4% DMSO control, were diluted to 8× concentration in XF assay medium and 25 μL was loaded into Port A of the XF Assay Cartridge. The mito-stress test components oligomycin (1 μM final), carbonyl cyanide-4-(trifluoromethoxy)-phenylhydrazon [FCCP] […]

[5] = tested on: T. cruzi epimastigotes bearing mutations in cytochrome b; test: epimastigote drug sensitivity assay, cytochrome b mutant / resistant lines; type: cell-based, Trypanosoma cruzi; details: for EC50: Trypanosoma cruzi
Protocol: T. cruzi epimastigotes from the Silvio strain (MHOM/BR/78/Silvio; clone X10/7A) were grown at 28°C in RTH/FBS medium ([80]).
T. cruzi epimastigote assays carried out as described previously ([43]).
Compound-resistant cell lines were generated by subculturing clones of wild-type T. cruzi epimastigotes in the continuous presence of compound 3 or compound 5. Starting at sublethal concentrations, drug concentrations in 3 independent cultures were increased in a stepwise manner, usually by 2-fold. When parasites were able to survive and grow in compound concentrations equivalent to >30-fold their established EC50 value, they were cloned by limiting dilution in the presence of compound. Three independent clones were selected from each compound for further study.

[6] = dosing group 3 + BNZ (30mg/kg qd)

With COc1cc(Cl)ccc1-c1c(C)[nH]c2nc(N)nc(C)c12 [Compound 3, 5-(4-Chloro-2-methoxyphenyl)-4,6-dimethyl-7H-pyrrolo[2,3-d]pyrimidin-2-amine] the “% inhibition of human bc1, individual replicates” value (“% inhibition of human bc1” for short) ([1]; 0.09 µM) was -102.79% and -0.39% and 23.45% and -1.32% and -77.48% and 6.58%, the inhibition at 0.09 µM ([1]; 0.09 µM) was -25.3% and the “% inhibition of human bc1” value ([1]; 0.27 µM) was -31.71% and -5.91% and 16.57% and 7.05% and 0.38% and 2.42%. For the same compound, the inhibition at 0.27 µM ([1]; 0.27 µM) was -1.87%, the “% inhibition of human bc1” value ([1]; 0.82 µM) was -55.04% and -6.88% and 19.61% and 6.94% and 1.93% and 10.74% and the inhibition at 0.82 µM ([1]; 0.82 µM) was -3.78%. For the same compound, the “% inhibition of human bc1” value ([1]; 2.47 µM) was -19.11% and -13.68% and 7.11% and 15.66% and -8.81% and 14.23%, the inhibition at 2.47 µM ([1]; 2.47 µM) was -0.76% and the “% inhibition of human bc1” value ([1]; 7.41 µM) was -1.93% and 0.10% and 21.95% and 17.90% and 0.73% and -3.46%. The inhibition at 7.41 µM ([1]; 7.41 µM) was 5.88%, the “% inhibition of human bc1” value ([1]; 22.22 µM) was -14.09% and -16.93% and 21.42% and 11.31% and -5.13% and the inhibition at 22.22 µM ([1]; 22.22 µM) was -0.68%. The “% inhibition of human bc1” value ([1]; 66.67 µM) was -178.30% and 13.25% and 22.71% and -32.39% and -2.98% and 16.87%, the inhibition at 66.67 µM ([1]; 66.67 µM) was -26.8% and the “% inhibition of human bc1” value ([1]; 200.00 µM) was 22.88% and 27.88% and 27.19% and -35.32% and 30.21% and 59.63%. The inhibition at 200 µM ([1]; 200.00 µM, read-out: Average % inhibition of human bc1) was 22.1%, the inhibition at 200 µM ([1]; 200 μM, read-out: Human complex III inhibition at 200μM) was 20% and the “inhibition of human complex III” value ([1]; concentrations up to and including 66.7 μM) was “did not inhibit”. The “AUC0-7h Day 1, unbound concentrations of compound 3” value [2, 6] was 2234 ± 509 ng·h/mL, the “AUC0-7h Day 5, unbound concentrations of compound 3” value [2, 6] was 5525 ± 663 ng·h/mL and the “Cmax Day 1, unbound concentrations of compound 3” value [2, 6] was 412 ± 88 ng/mL. The “Cmax Day 5, unbound concentrations of compound 3” value [2, 6] was 977 ± 129 ng/mL, the “AUC0-7h Day 1, unbound concentrations of compound 3” value ([2]; dosing group 3 alone) was 3024 ± 619 ng·h/mL and the “AUC0-7h Day 5, unbound concentrations of compound 3” value ([2]; dosing group 3 alone) was 6094 ± 870 ng·h/mL. For the same compound, the “Cmax Day 1, unbound concentrations of compound 3” value ([2]; dosing group 3 alone) was 530 ± 95 ng/mL, the “Cmax Day 5, unbound concentrations of compound 3” value ([2]; dosing group 3 alone) was 1014 ± 185 ng/mL and the AUC(0-t) ([2]; 10-day study, read-out: AUC0-7h Day 1) was 1800 ± 243 ng·h/mL. For the same compound, the AUC(0-t) ([2]; 10-day study, read-out: AUC0-7h last day) was 7790 ± 1560 ng·h/mL, the Cmax ([2]; 10-day study, read-out: Cmax Day 1) was 325 ± 59 ng/mL and the Cmax ([2]; 10-day study, read-out: Cmax last day) was 1250 ± 259 ng/mL. For the same compound, the AUC(0-t) ([2]; 20-day study, read-out: AUC0-7h Day 1) was 2740 ± 388 ng·h/mL, the AUC(0-t) ([2]; 20-day study, read-out: AUC0-7h last day) was 4920 ± 479 ng·h/mL and the Cmax ([2]; 20-day study, read-out: Cmax Day 1) was 480 ± 69 ng/mL. For the same compound, the Cmax ([2]; 20-day study, read-out: Cmax last day) was 810 ± 75 ng/mL, the “Calcium loading capacity, rat mitochondria, MEC” value [3] was 5.7 µM and the “95% confidence interval for no-relapse” value ([4]; Fig. 3, compound 3 50 mg/kg bid) was 0.19 − 0.81. For the same compound, the animals relapsed ([4]; compound 3 monotherapy 50 mg/kg bid, oral) was “three out of six”, the “Seahorse MST, HepG2, LEC” value (HepG2 cells) was 80 µM and the EC50 ([5]; read-out: EC50 F222L) was 1120 ± 63 nM. It also gave an EC50 ([5]; read-out: EC50 G36C/L197F cytb line) of 3 ± 0.1 nM, an EC50 ([5]; read-out: EC50 G36C/L197I cytb line) of 258 ± 7 nM and an EC50 ([5]; read-out: EC50 L197F cytb line) of 3.7 ± 0.1 nM. For the same compound, the EC50 ([5]; read-out: EC50 L197I) was 115 ± 7 nM, the EC50 ([5]; read-out: EC50 compound 3-resistant clone RES1) was 107 ± 5.4 nM and the EC50 ([5]; read-out: EC50 compound 3-resistant clone RES3) was 166 ± 14 nM. The “fold change from WT, L197I” value ([5]; compound 3-resistant line (L197I)) was 19 fold, the “fold change from WT, F222L” value ([5]; compound 5-resistant line (F222L)) was 183 fold and the “cross-resistance of G36C and L197I epimastigotes” value ([5]; versus wild-type) was 23 fold.
